{"source": "patent US11800869B2", "about": "“Use of 6-oxo-1,4,5,6-tetrahydropyridazine-3-carboxylic acid, 1-methyl 6-oxo-1,4,5,6-tetrahydropyridazine-3-carboxylic acid and 1-alkyl-6-oxo-1,4,5,6-tetrahydropyridazine-3-carboxylic acid for improving growth performance in plants” (Advanced Crop Chem LLP, priority 2020, dated 2023)", "assay_type_in_all_cases": "in vivo", "key": {"[1]": {"system": "Soybean seeds (Var. Viking)", "assay": "Soybean seed treatment, germination paper, shoot fresh weight (Example 10)", "settings": "seeds imbibed three minutes in 0.01 mM; germination paper 75-85° F; two table lines, Control 98.3 and 106.2", "method": "Soybean seeds were treated with 6-oxo-1,4,5,6 tetrahydropyridazine-3-carboxylic acid and the weights of the shoots were determined as shown in Table 2. Early seedling emergence is important for early establishment of a vigorous and productive crop. Soybean seeds (Var. Viking) were treated by imbibing them for three minutes with a solution of 0.01 mM 6-oxo-1,4,5,6 tetrahydropyridazine-3-carboxylic acid in an aqueous solution also containing soft soap and glycerol at pH 5.7-5.8. The control seeds were imbibed in aqueous solution containing only the soft soap and glycerol at pH 5.7-5.8. The seeds were placed on moist germination paper and allowed to germinate at 75-85° F. The fresh weights were taken to assess the shoot development."}, "[2]": {"system": "Corn", "assay": "Seed treatment plus foliar spray, root and shoot biomass and emergence, corn (Example 2)", "method": "(§1) Winter wheat variety AWC 13 seeds were treated with either 6-oxo-1,4,5,6-tetrahydropyridazine-3-carboxylic acid (THP) or 1-methyl 6-oxo-1,4,5,6 tetrahydropyridazine-3-carboxylic acid (MTHP) at an effective rate of 10g diluted in 2 L water plus 0.25% Nouryon wetter and applied to 1 ton of seed. These seed were planted in coarse river sand and grown in a greenhouse under ambient light at the greenhouse at 21° C. Plants were irrigated every other day with water containing 50% strength Hoaglands solution. Plants were assessed for emergence and biomass accumulation 30 days after planting. The plants from seeds treated with 6-oxo-1,4,5,6-tetrahydropyridizin-3-carboxylic acid or 1-methyl 6-oxo-1,4,5,6 tetrahydropyridazine-3-carboxylic acid had larger root biomasses (0.83, 0.85 g, dry weight/plant) compared with plants from untreated seeds (0.65 g dry weight/plant). Wheat, corn and pepper seeds were treated with 6-oxo-1,4,5,6-tetrahydropyridizine-3-carboxylic acid (THP) using the same methodology and growth conditions as described in example 1 and the resulting plants were also treated with a light foliar cover spray using an electric hand-held sprayer. (100 g in 200 L water plus 0.25% Nouryon wetter) of 6-oxo-1,4,5,6 tetrahydropyridazine-3-carboxylic acid (30 days post emergence (wheat at Zadoks GS 14 (see FIG. 1), maize at V2, Pepper at 3-4 leaf stage) and then assessed for root and shoot biomass 45 days later. At 75 days post planting the plants were assessed for root and shoot biomass as measured with dry weight."}, "[3]": {"system": "Wheat seeds", "assay": "Wheat seed treatment, in vitro germination and early growth compared with Take Off (Example 11)", "settings": "10 g per ton of seed; petri dishes, 20C; FIG. 6", "method": "Referring to FIG. 6, illustrated are three photographs 600 of an In vitro assessment of the effects on the germination and early stage growth of wheat following treatment of naked wheat seed with of 6-oxo-1,4,5,6 tetrahydropyridazine-3-carboxylic acid. Untreated 610, THP 620 and a commercial seed treatment, Take Off® 630. The seed shown in 620 was grown under natural daylight conditions at 20-22 degrees Centigrade. Wheat seeds were treated with 6-oxo-1,4,5,6 tetrahydropyridazine-3-carboxylic acid or a commercial seed treatment at labeled rates (Take Off ST) and allowed to germinate to examine and compare the effects of temperature on germination. Wheat seeds were treated with 6-oxo-1,4,5,6 tetrahydropyridazine-3-carboxylic acid or Take Off, a commercial biostimulant (that claims faster germination and emergence). The treated seeds received the treatment compounds at the rate of 10 g per ton of seed utilizing the same dosing methodology as Example 1. However in this case seeds were germinated on moistened absorbent paper towel discs in closed petri dishes. The seeds were incubated at 20C in darkness until germination commenced and then grown in natural diurnal conditions for a further 12 days."}, "[4]": {"system": "Pepper", "assay": "Seed treatment plus foliar spray, root and shoot biomass and emergence, pepper (Example 2)", "method": "as §1"}, "[5]": {"system": "Field grown wheat plants (Var: AWC 13)", "assay": "Foliar treatment of field grown wheat (Example 6)", "settings": "foliar treatment at Zadoks GS 25-26, 100 g in 200 L water, mean of 10 plants", "method": "Field grown wheat plants (Var: AWC 13) were given foliar treatment at Zadoks GS 25-26 (FIG. 1) of 6-oxo-1,4,5,6 tetrahydropyridazine-3-carboxylic acid (THP) or 1-methyl 6-oxo-1,4,5,6 tetrahydropyridazine-3-carboxylic acid (MTHP) both at 100 g in 200 L water plus 0.25% Nouryon wetter. Plants were grown under standard UK wheat growing cultural practice (https://andb.org.uk/wheatgg). Yield was assessed at harvest."}, "[6]": {"system": "Corn", "assay": "Foliar treatment dose series, root and shoot fresh weight, corn (Example 8)", "settings": "35 days post treatment; for Root, FWt: dose 0: 2.3; for Shoot, FWt: dose 0: 6.1", "method": "Corn and wheat plants were given a foliar treatment […] (as described in Example 2) with 6-oxo-1,4,5,6 tetrahydropyridazine-3-carboxylic acid (THP) and then assessed for root and shoot biomass. Three treatment dosages were applied (Table 2). Plants were grown in a greenhouse with a diurnal cycle of 55-75F with ambient light. The plants were grown in a coarse river sand in 4″ pots with 0.5 g of Osmacote/pot. The mean root and shoot fresh weights were assessed at 35 days post treatment."}, "[7]": {"system": "Wheat plants (Variety AWC 13)", "assay": "Foliar treatment of wheat, foliar and root dry biomass (Example 5)", "settings": "foliar treatment at Zadoks GS 15-20, 30 days after application, mean of 10 plants", "text": "Wheat plants (Variety AWC 13) were given a foliar treatment of 6-oxo-1,4,5,6-tetrahydropyridazine-3-carboxylic acid(THP) or 1-methyl 6-oxo-1,4,5,6 tetrahydropyridazine-3-carboxylic acid (MTHP) and their foliar and root dry biomass determined 30 days after application. The foliar applications were applied at approximately at Zadoks GS 15-20 (see FIG. 1) and assessed 30 days later at Zadoks GS 22-24 (also shown in FIG. 1)."}, "[8]": {"system": "wheat seedlings", "assay": "Foliar treatment of wheat seedlings, recovery from drought stress (Example 18)", "parameters": "dose or concentration left out as unconfirmed", "settings": "Drought stressed 10 days then 16 days regrowth", "method": "Sets of wheat seedlings were given two foliar treatments with 6-oxo-1,4,5,6-tetrahydropyridazine-3-carboxylic acid to examine seedling recovery from drought stress. […] Seedlings were given two foliar treatments: the first at Zadoks GS 12 and at Zadoks GS 14 (FIG. 1). The plants were grown in a greenhouse and fed a standard plant nutrient solution. The plants were drought stressed for 10 days after which water and nutrients were resumed and the plants were allowed to grow for 16 days."}, "[9]": {"settings": "seed treatment plus foliar spray 100 g in 200 L, 75 days post planting"}, "[10]": {"settings": "seed treatment, % Emergence at 10 days post planting"}, "[11]": {"settings": "foliar dose 50 g/ha in 200 L/ha"}, "[12]": {"settings": "foliar dose 100 g/ha in 200 L/ha"}, "[13]": {"settings": "foliar dose 200 g/ha in 200 L/ha"}}, "note": "Values joined by “and” are separate entries in the source; they are usually repeats but may differ in a detail not shown here. Identical values can stand only once."}
{"smiles": "O=C1CCC(C(=O)O)=NN1", "note": "[THP, 6-oxo-1,4,5,6 tetrahydropyridazine-3-carboxylic acid]", "values": [{"measurement": "Shoots, Fresh wt.", "setting": "[1]", "value": "114.3 mg and 128.6 mg"}, {"measurement": "Root Dry Weight, % Difference vs Untreated", "setting": "[2]; [9]", "value": 8, "unit": "%"}, {"measurement": "Shoot Dry Weight, % Difference vs Untreated", "setting": "[2]; [9]", "value": 3, "unit": "%"}, {"measurement": "Emergence, % Difference vs Untreated", "setting": "[2]; [10]", "value": 11, "unit": "%"}, {"measurement": "root biomass compared with untreated seeds or Take Off treated seeds", "setting": "[3]", "value": "greater root biomass"}, {"measurement": "shoots compared with untreated seeds or Take Off treated seeds", "setting": "[3]", "value": "longer bright green shoots"}, {"measurement": "Root Dry Weight, % Difference vs Untreated", "setting": "[4]; [9]", "value": 19, "unit": "%"}, {"measurement": "Shoot Dry Weight, % Difference vs Untreated", "setting": "[4]; [9]", "value": 9, "unit": "%"}, {"measurement": "Emergence, % Difference vs Untreated", "setting": "[4]; [10]", "value": 24, "unit": "%"}, {"measurement": "Dry Weight Shoot", "setting": "[5]; Con 0.47", "value": 1.01}, {"measurement": "Dry Weight Root", "setting": "[5]; Con 0.65", "value": 1.5}, {"measurement": "Root, FWt", "setting": "[6]; [11]", "value": 2.7, "unit": "g"}, {"measurement": "Shoot, FWt", "setting": "[6]; [11]", "value": 7.8, "unit": "g"}, {"measurement": "Root, FWt", "setting": "[6]; [12]", "value": 3.4, "unit": "g"}, {"measurement": "Shoot, FWt", "setting": "[6]; [12]", "value": 7.2, "unit": "g"}, {"measurement": "Root, FWt", "setting": "[6]; [13]", "value": 1.8, "unit": "g"}, {"measurement": "Shoot, FWt", "setting": "[6]; [13]", "value": 5.1, "unit": "g"}, {"measurement": "Dry Weight Shoot", "setting": "[7]; Con 0.47", "value": 1.01}, {"measurement": "Dry Weight Root", "setting": "[7]; Con 0.65", "value": 1.5}, {"measurement": "Number of seed heads, avg.", "setting": "[8]; untreated drought stressed 7.1, normal water 5.4", "value": 8.3}, {"measurement": "Total foliar fresh wt., avg.", "setting": "[8]; untreated drought stressed 28.2, normal water 32.3", "value": 33.4, "unit": "g"}]}
